Measurements reported in PubChem BioAssay AID248 (DTP/NCI, 2004).
Where “and” joins values, the source holds several entries; their conditions need not be identical. Equal values may be shown once. Inconclusive results and toxic doses are left out. No stated cut-off is given here; in the data, active means T/C of 150% or more; inactive means T/C below 125%.

Test system: L1210 leukemia ip in BDF1 mice, survival T/C
Assay: NCI In Vivo Anticancer Drug Screen. Data for tumor model L1210 Leukemia (intraperitoneal) in B6D2F1 (BDF1) mice
Details: endpoint: mean survival time, higher = longer survival
How it was run: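 Survival endpoint. Drug-treated group vs vehicle group, expressed as T divided by C. Tumor passaged by transplantation.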

[1] = dose: 100.0 mg/kg/injection, schedule: Q04DX003 (ip), vehicle: Klucel (hydroxypropylcellulose) (HPC)
[2] = dose: 200.0 mg/kg/injection, schedule: Q04DX003 (ip), vehicle: Klucel (hydroxypropylcellulose) (HPC)
[3] = dose: 400.0 mg/kg/injection, schedule: Q04DX003 (ip), vehicle: Klucel (hydroxypropylcellulose) (HPC)
[4] = dose: 100.0 mg/kg/injection, schedule: Q01DX001 (ip), vehicle: saline
[5] = dose: 200.0 mg/kg/injection, schedule: Q01DX001 (ip), vehicle: saline
[6] = dose: 400.0 mg/kg/injection, schedule: Q01DX001 (ip), vehicle: saline
[7] = dose: 100.0 mg/kg/injection, schedule: Q01DX001 (ip), vehicle: carboxymethylcellulose (CMC)
[8] = dose: 200.0 mg/kg/injection, schedule: Q01DX001 (ip), vehicle: carboxymethylcellulose (CMC)
[9] = dose: 400.0 mg/kg/injection, schedule: Q01DX001 (ip), vehicle: carboxymethylcellulose (CMC)
[10] = dose: 100.0 mg/kg/injection, schedule: Q04DX002 (ip), vehicle: saline with Tween-80
[11] = dose: 200.0 mg/kg/injection, schedule: Q04DX002 (ip), vehicle: saline with Tween-80
[12] = dose: 400.0 mg/kg/injection, schedule: Q04DX002 (ip), vehicle: saline with Tween-80
[13] = dose: 100.0 mg/kg/injection, schedule: Q01DX009 (ip), vehicle: Klucel (hydroxypropylcellulose) (HPC)
[14] = dose: 200.0 mg/kg/injection, schedule: Q01DX009 (ip), vehicle: Klucel (hydroxypropylcellulose) (HPC)
[15] = dose: 400.0 mg/kg/injection, schedule: Q01DX009 (ip), vehicle: Klucel (hydroxypropylcellulose) (HPC)
[16] = dose: 100.0 mg/kg/injection, schedule: Q04DX003 (ip), vehicle: saline with Tween-80
[17] = dose: 200.0 mg/kg/injection, schedule: Q04DX003 (ip), vehicle: saline with Tween-80
[18] = dose: 100.0 mg/kg/injection, schedule: Q01DX009 (ip), vehicle: saline with Tween-80
[19] = dose: 200.0 mg/kg/injection, schedule: Q01DX009 (ip), vehicle: saline with Tween-80

Measured: T/C

Cc1cc(C)c2c(c1)-c1nc3c(cc1CC2)CCc1c(C)cc(C)cc1-3
inactive: [1] 100 % of control | [2] 95 % of control | [3] 97 % of control

NC(CO)CO
inactive: dose: 100.0 mg/kg/injection, schedule: Q04DX002 (ip), vehicle: saline 105 % of control | dose: 200.0 mg/kg/injection, schedule: Q04DX002 (ip), vehicle: saline 108 % of control | dose: 400.0 mg/kg/injection, schedule: Q04DX002 (ip), vehicle: saline 105 % of control

Cc1cc(NS(=O)(=O)c2ccc(N=Nc3cc(N=Nc4ccccc4)c(N)nc3N)cc2)nc(C)n1
inactive: [4] 100 % of control | [5] 100 % of control | [6] 105 % of control

O=C(c1ccccc1)C1C(c2ccccc2)N1C(=O)c1ccc([N+](=O)[O-])cc1 (stereo not given)
inactive: dose: 75.0 mg/kg/injection, schedule: Q01DX001 (ip), vehicle: saline with Tween-80 96 % of control | dose: 150.0 mg/kg/injection, schedule: Q01DX001 (ip), vehicle: saline with Tween-80 86 % of control | dose: 300.0 mg/kg/injection, schedule: Q01DX001 (ip), vehicle: saline with Tween-80 91 % of control

COc1c(Br)cc(N=Cc2ccc(N(CCCl)CCCl)cc2C)cc1Br
inactive: [7] 98 % of control | [8] 107 % of control | [9] 110 % of control

CCCC(=O)N1CCCCCC1
inactive: [10] 92 % of control | [11] 113 % of control | [12] 95 % of control

CC1(C)N=C(N)N=C(N)N1c1cccc(OCCOc2cccc(NC(=O)CBr)c2)c1
inactive: dose: 5.0 mg/kg/injection, schedule: Q01DX001 (ip), vehicle: saline 98 % of control | dose: 10.0 mg/kg/injection, schedule: Q01DX001 (ip), vehicle: saline 102 % of control | dose: 10.0 mg/kg/injection, schedule: Q01DX009 (ip), vehicle: other 105 % of control | dose: 20.0 mg/kg/injection, schedule: Q01DX001 (ip), vehicle: saline 93 % of control | dose: 20.0 mg/kg/injection, schedule: Q01DX009 (ip), vehicle: other 98 % of control | dose: 40.0 mg/kg/injection, schedule: Q01DX001 (ip), vehicle: saline 96 % of control

O=C(COc1ccc(Cl)cc1)Nc1cccc(C(F)(F)F)c1
inactive: [13] 96 % of control | [1] 102 % of control | [14] 89 % of control | [2] 93 % of control | [15] 91 % of control | [3] 93 % of control

CC(C)(C)OOC(=O)CCCl
inactive: [10] 93 % of control | [11] 101 % of control | [12] 101 % of control

N#C/C(=C\c1ccncc1)c1csc2ccccc12
inactive: [16] 101 % of control | [17] 100 % of control | dose: 400.0 mg/kg/injection, schedule: Q04DX003 (ip), vehicle: saline with Tween-80 94 % of control

COC(=O)c1[nH]cnc1/N=N/N(C)C.[Cl][Cu][Cl]
inactive: dose: 9.0 mg/kg/injection, schedule: Q01DX009 (ip), vehicle: saline 106 % of control and 115 % of control | dose: 13.0 mg/kg/injection, schedule: Q01DX009 (ip), vehicle: saline 107 % of control and 108 % of control | dose: 20.0 mg/kg/injection, schedule: Q01DX009 (ip), vehicle: saline 122 % of control

Cc1cc(C)c2c(c1C)OC(C)(C)C=C2
inactive: [13] 98 % of control | [1] 98 % of control | [14] 100 % of control | [2] 107 % of control | [15] 97 % of control | [3] 100 % of control

CC(=O)OC(CC/C(C)=C/COC1CCCCO1)C(C)(C)O (stereo not given)
inactive: dose: 100.0 mg/kg/injection, schedule: Q01DX001 (ip), vehicle: saline with Tween-80 102 % of control | [18] 95 % of control | dose: 200.0 mg/kg/injection, schedule: Q01DX001 (ip), vehicle: saline with Tween-80 103 % of control | [19] 98 % of control | dose: 400.0 mg/kg/injection, schedule: Q01DX001 (ip), vehicle: saline with Tween-80 105 % of control | dose: 400.0 mg/kg/injection, schedule: Q01DX009 (ip), vehicle: saline with Tween-80 96 % of control

BrC1(Br)C23CC=CCC12CCCC3 (stereo not given)
inactive: dose: 100.0 mg/kg/injection, schedule: Q04DX003 (ip), vehicle: saline 95 % of control | dose: 200.0 mg/kg/injection, schedule: Q04DX003 (ip), vehicle: saline 100 % of control | dose: 400.0 mg/kg/injection, schedule: Q04DX003 (ip), vehicle: saline 105 % of control

CCCCCCCCCCCCCCCCCC1=Nc2cc(C)c(C)cc2NC(=O)C1
inactive: [7] 93 % of control | [8] 88 % of control | [9] 86 % of control

CC(C)(C)c1ccc(OC(=O)Nc2ccc(Cl)cc2[N+](=O)[O-])c(Br)c1
inactive: [13] 98 % of control | [14] 93 % of control | [15] 98 % of control

CCCCC[As](=O)(O)O
inactive: dose: 1.5 mg/kg/injection, schedule: Q01DX001 (ip), vehicle: carboxymethylcellulose (CMC) 104 % of control | dose: 3.0 mg/kg/injection, schedule: Q01DX001 (ip), vehicle: carboxymethylcellulose (CMC) 102 % of control | dose: 6.0 mg/kg/injection, schedule: Q01DX001 (ip), vehicle: carboxymethylcellulose (CMC) 113 % of control

O=C(O)c1cc(Br)sc1Br
inactive: [7] 101 % of control | [8] 95 % of control | [9] 95 % of control

On1ccc(N2CCOCC2)cc1=Nc1ccccc1
inactive: [4] 96 % of control

O=C(N/N=C\c1cc(Br)cc(Br)c1O)N/N=C/c1cc(Br)cc(Br)c1O
inactive: [10] 108 % of control | [11] 95 % of control | [12] 92 % of control

CC(O)(C(=O)O)c1ccccc1O (stereo not given)
inactive: dose: 75.0 mg/kg/injection, schedule: Q01DX001 (ip), vehicle: saline 98 % of control | dose: 150.0 mg/kg/injection, schedule: Q01DX001 (ip), vehicle: saline 96 % of control | dose: 300.0 mg/kg/injection, schedule: Q01DX001 (ip), vehicle: saline 93 % of control

CC(C)=CCNc1ncnc2c(C3OC(CO)C(O)C3O)[nH]nc12 (stereo not given)
inactive: dose: 100.0 mg/kg/injection, schedule: Q01DX005 (ip), vehicle: saline 95 % of control | dose: 200.0 mg/kg/injection, schedule: Q01DX005 (ip), vehicle: saline 95 % of control

CCOC(=O)c1ccc(NC(=O)Nc2ccc(Cl)cc2)cc1
inactive: [13] 97 % of control | [1] 96 % of control | [14] 104 % of control | [2] 104 % of control | [15] 97 % of control | [3] 100 % of control

NCc1nc2ccccc2[nH]1
inactive: dose: 50.0 mg/kg/injection, schedule: Q01DX001 (ip), vehicle: saline 101 % of control | [4] 103 % of control | [5] 95 % of control | [6] 95 % of control

CCN(CC)c1ccc(NC(=O)NC(C)C)cc1
inactive: dose: 50.0 mg/kg/injection, schedule: Q01DX009 (ip), vehicle: saline with Tween-80 101 % of control | [18] 108 % of control | [16] 105 % of control | [19] 97 % of control | [17] 103 % of control

CCCCC(=O)c1ccc(OC)cc1
inactive: [13] 100 % of control | [1] 96 % of control | [14] 105 % of control | [2] 102 % of control | [15] 102 % of control | [3] 93 % of control

CSC(N)=NC#N
inactive: dose: 100.0 mg/kg/injection, schedule: Q04DX002 (ip), vehicle: other 111 % of control | dose: 200.0 mg/kg/injection, schedule: Q04DX002 (ip), vehicle: other 93 % of control | dose: 400.0 mg/kg/injection, schedule: Q04DX002 (ip), vehicle: other 107 % of control

CCCCCCCCCCCCCCCCCCCC/C=C/C1CC(=O)OC1=O (stereo not given)
inactive: [13] 98 % of control | [1] 95 % of control | [14] 96 % of control | [2] 98 % of control | [15] 96 % of control | [3] 113 % of control
